Measured values taken from patent US7709443B2, “Cyclic peptide antitumor agents” (Northwestern University, priority 2003, dated 2010).
In brackets after ≈: the same amount, converted by molar mass. Like-named read-outs stand apart in the source and are kept apart here. Square brackets hold non-standard residues; d marks the D form. Peptide text beside a SMILES is read from it. NMePhe(4-Br) = CN[C@@H](Cc1ccc(Br)cc1)C(=O)O; Phe(4-Br) = N[C@@H](Cc1ccc(Br)cc1)C(=O)O; NMeF = CN[C@@H](Cc1ccccc1)C(=O)O; Hica(2S) = CC(C)C[C@H](O)C(=O)O; NMeL = CN[C@@H](CC(C)C)C(=O)O; Aib = CC(C)(N)C(=O)O

Legend:
[1] = test system: AsPC-1 human pancreatic cancer cells; experiment: DNA synthesis by [methyl-3H] thymidine incorporation, AsPC-1; assay type: cell-based; conditions: AsPC-1, 24 hours, FIG. 6
Protocol: (§1) Given the results of the preceding example, several compounds of this invention were tested against human pancreatic cancer cell lines. Two cancer cell lines were selected: S2-013 (well-differentiated) and AsPC-1 (poorly differentiated). These cell lines were purchased from American Type Culture Collection (Manassas, Va.). Both cell lines were grown in DMEM and plated as monolayers in the medium supplemented with 10% fetal bovine serum in a humidified atmosphere of […] and 5% CO2 at 37° C. The cells were regularly seeded into 75 cm^2 flasks with media changes every second or third day. For experiments, cells were grown to 70% confluence, digested with trypsin-EDTA, and plated in either 6-, 24-, or 48-well plates.
DNA Synthesis by [methyl-^3H] Thymidine Incorporation. Cells were plated in 24-well plates at a concentration of 50,000 cells/well. […] Radioactivity, indicating incorporation of ^3H-methyl thymidine into DNA, was measured by adding scintillation cocktail and counting on a scintillation counter (LKB RackBeta; Wallac, Turku, Finland).
Statistical Analysis. Data were analyzed by ANOVA with Dunnett's or Bonferoni's corrections for multiple comparisons, as appropriate. […] Data were expressed as mean±SEM.

[2] = test system: MDA-MB231 (Breast) human cancer cell line; conditions: three days
Protocol: (§5) Cells were plated at 5,000 cells per well in 24-well plates, treated for three days, then counted. Cell number was normalized to the number of cells in untreated control (DMSO) cells, also after three days.

S2-013 cell line = experiment: Cell proliferation assay (Guava ViaCount cell number), S2-013; assay type: cell-based, human; conditions: S2-013, 10 μM, 72 hours, vs vehicle (DMSO)
Protocol: as §1
(§2) Cell Proliferation Assay. Cells were regularly seeded into three 6-well plates and incubated at 37° C. for 24 hours. Cells were then cultured in serum-free medium for another 24 hours and treated in fresh serum-free medium with or without 10 μM of cyclic peptide 1k for 24, 48, and 72 hours. At the end of each time period, the cells were trypsinized to produce a single cell suspension, and the cell number in each well was determined using Guava Technologies=ViaCount Assay (Guava Technologies Inc, Hayward, Calif.).
(§3) Statistical Analysis. Data were analyzed by ANOVA with Dunnett's or Bonferoni's corrections for multiple comparisons, as appropriate. This analysis was performed with the Prism software package (GraphPad, San Diego, Calif.). Data were expressed as mean±SEM.

[3] = test system: S2013 human pancreatic cancer cells; experiment: Cell cycle analysis by flow cytometry, S2013; assay type: cell-based; conditions: S2013, 10 μM, 24 hours
Protocol: (§4) Cell Cycle Analysis by Flow Cytometry. AsPC-1 and S2013 human pancreatic cancer cells were cultured in T75 flasks with media containing 10% FBS. After reaching 50-60% confluence, the cells were serum-starved for 24 hours, and then treated with 10 μM of cyclic peptide 1k for 24 hours. At the end of the treatment, the cells were harvested with trypsin-EDTA solution to produce single cell suspension. The cells were then centrifuged at 1000×g for 10 minutes. The pellets were washed twice with ice-cold phosphate buffer saline (PBS), and re-suspended in 0.5 ml PBS. 5 ml of ice-cold 70% ethanol was added to each cell suspension and incubated for 12 hours at 4° C. The cells fixed in ethanol were centrifuged at 1000×g for 10 minutes and the subsequent pellets were washed with ice-cold PBS twice. The final cell pellets were reconstituted in the 1 ml Telford reagent and horizontally shaken for 1 hour in the dark at room temperature. The red fluorescence of the single events was recorded using a laser beam at 488 nm excitation 8 and 610 nm as emission 8 to measure the DNA index. Experiments were repeated three times.

AsPC-1 cells [4] = experiment: Cell proliferation assay (Guava ViaCount cell number), AsPC-1; assay type: cell-based, human; conditions: AsPC-1, 10 μM, 72 hours, vs vehicle (DMSO)
Protocol: as §1, §2, §3

AsPC-1 cells [5] = experiment: Morphological changes using light microscopy, AsPC-1; assay type: cell-based, human; conditions: AsPC-1, 24 hours, 0.1-100 μM tested
Protocol: as §1
Morphological Changes Using Light Microscopy. AsPC-1 and S2-013 cells plated in 24-well plates were treated with varying concentrations (0.1-100 μM) of cyclic peptide 1k for 24 hours. Cells were then viewed using light microscopy, and digital images were taken with a Kodak DC120 zoom digital camera (Eastman Kodak Co., Rochester, N.Y.).

[6] = test system: PC-3 (Prostate) human cancer cell line; conditions: three days
Protocol: as §5

[7] = test system: AsPC-1 human pancreatic cancer cells; experiment: Cell cycle analysis by flow cytometry, AsPC-1; assay type: cell-based; conditions: AsPC-1, 10 μM, 24 hours
Protocol: as §4

[8] = test system: WM115 (Melanoma) human cancer cell line; conditions: three days
Protocol: as §5

[9] = test system: HCT-116 (human colon carcinoma); experiment: cells; conditions: HCT-116 bioassay, Table 1
Excerpt: The HCT-116 human colon adenocarcinoma screen is a tissue culture first line assay to detect inherent cytotoxicity against malignant cancer cells. This strain is considered to be an “indicator strain” by many for the selection of inhibitors that target solid tumors. The assay is a calorimetric endpoint assay which can be produced in 96-well format trays. Data are acquired by plate reader and dose response curves are produced by computer analysis. […] This assay is run routinely as described below and would be understood in the art.
1. Media (1000 mL McCoy's 5A Medium, 114 mL Fetal Bovine Serum, 25 mL Hepes buffer solution (IM), 12.5 mL Penicillin-Streptomycin solution)
2. Cell line (HCT-116, human colon cancer cell line)
3. Indicator (MTS and PMS in DPBS)
5. Standard anticancer drug (etoposide (VP-16); stock is 4 mg/mL in DMSO
6. DPBS (without CaCl2 and MgCl2)
1. Remove medium from the cells and rinse with 10 mL sterile DPBS.
3. Allow to stand in hood for 1 minute.
4. Remove trypsin with sterile pipette.
5. Allow flask to stand in hood for 2-5 minutes.
6. Add 10 mL of media to flask and pipette up and down to gently break up cell clumps.
7. Count the number of cells using a hemacytometer.
8. Determine # of plates needed, and total volume of cell suspension (16 or 18 mL per plate).
9. Dilute cells to a final concentration of 2.5×10^4 cells/mL in a sterile flask.
10. Pour cell suspension into a sterile trough.
For Serial Dilution Plates
1. Add 175 μL to each well in the first row of a 96 well plate.
2. Add 150 μL to the rest of the wells in A1-A10 & A12.
3. In row 11 add 150 μL cell suspension to the first 6 wells and only media to the last two.
For Single Concentration Plates
1. Add 150 μL of sterile media to G11 & H11.
2. Add 150 μL of cell suspension to all other wells.
3. Add 25 μL more to well H1.
Incubate plates overnight at 37° C. & 5% CO2
1. Add 25 μL of test compounds @ 10 mg/mL to A1-A10, 25 μL of DMSO to A11 & 25 μL of etoposide (4 mg/mL) to A12.
2. Using a twelve channel pipette, mix well then remove 50 μL from the first row and transfer to the next row, repeat down the plate until row F, then remove tip # 11 and continue down plate discarding the last 50 μL.
3. Incubate plates for 72 h.
1. Add 20 μL of MTS/PMS solution to each well.
3. Read plates @490 nm on plate reader.

[10] = test system: National Cancer Institute's 60 cell-line panel; conditions: mean over panel; cited from earlier work
[11] = test system: HCT-116 (human colon carcinoma); conditions: as found for the natural product; cited from earlier work
topoisomerase I = conditions: mechanism study in molluscum contagiosum virus; cited from earlier work
PC-3 cells = experiment: Annexin V binding, induction of apoptosis; assay type: cell-based, human; conditions: after 72 hours
Excerpt: The ability of the compounds in this invention to induce apoptosis was also studied, based on a methodology previously reported in the literature. (See, Soff et al. Cancer Res., 63:4275-4289, 2003.) As understood by those skilled in the art, the ability of Annexin V to bind two cells is related to altered phospholipids on a cell surface, induced by apoptosis. As such, increased Annexin V binding indicates induction of apoptosis.

[12] = test system: Caspase-3 activity in PC-3 cells; experiment: Caspase-3 activity, fluorometric assay; assay type: cell-based, human; conditions: relative to DMSO and staurosporin controls
Protocol: Caspase-3 is a mediator of apoptosis, and induction of Caspase-3 activity indicates induction of apoptosis. Activity of Caspase-3 was measured by a fluorometric assay, as described in the literature, referenced above.

Row | SMILES | Fold Induction Over DMSO control ([2]; MDA-MB231, 1 μM) | Fold Induction Over DMSO control ([2]; MDA-MB231, 10 μM) | change in number of cells (S2-013 cell line) | change in number of cells (AsPC-1 cells [4]) | Fold Induction Over DMSO control ([6]; PC-3, 1 μM) | Fold Induction Over DMSO control ([6]; PC-3, 10 μM) | Fold Induction Over DMSO control ([8]; WM115, 1 μM) | Fold Induction Over DMSO control ([8]; WM115, 10 μM) | Caspase-3 activity [12] | further results
1 | CC(C)C[C@@H]1NC(=O)[C@H](CC(C)C)NC(=O)[C@H](Cc2ccc(Br)cc2)N(C)C(=O)[C@H](CC(C)C)NC(=O)[C@H](C(C)C)NC1=O [Compound 1k] (cyclo([NMePhe(4-Br)]LLVL)) | 3.17 | 0.41 | significant (p<0.05) decrease | significant (p<0.05) decrease | 0.95 | 0.66 | 1.05 | 0.13 |  | concentration-dependent effect on thymidine incorporation [1]: concentration-dependent inhibition; S phase fraction [3]: marked decrease; cell cycle effect [3]: G0/G1 phase cell cycle arrest; subG1 fraction of apoptotic cells [3]: increase; compound concentration giving obvious morphological changes (AsPC-1 cells [5]): ≥ 10 μM; S phase fraction [7]: marked decrease; cell cycle effect [7]: G0/G1 phase cell cycle arrest; subG1 fraction of apoptotic cells [7]: increase
2 | CC(C)C[C@@H]1NC(=O)[C@H](C(C)C)NC(=O)[C@H](CC(C)C)OC(=O)[C@H](CC(C)C)NC(=O)[C@H](Cc2ccccc2)NC1=O [Sansalvamide A, reference compound] (cyclo(FL[Hica(2S)]VL)) | 0.90 | 0.09 |  |  | 0.95 | 0.22 | 0.98 | 0.02 |  | IC50 [9]: 9.8 µg/mL (≈ 16.7 µM); mean IC50 against NCI 60 cell-line panel [10]: 27.4 µg/mL; in vitro value toward HCT-116 colon carcinoma [11]: 9.8 µg/mL; inhibition of topoisomerase I (topoisomerase I): inhibitor of topoisomerase I
3 | CC(C)C[C@@H]1NC(=O)[C@H](Cc2ccc(Br)cc2)NC(=O)[C@H](CC(C)C)N(C)C(=O)[C@H](C(C)C)NC(=O)[C@H](CC(C)C)NC1=O [Compound 1i] (cyclo([Phe(4-Br)]LLV[NMeL])) | 0.96 |  | significant (p<0.05) decrease | significant (p<0.05) decrease | 0.85 |  | 1.44 |  | induced | induction of apoptosis (Annexin V binding) (PC-3 cells): induction of apoptosis was observed
4 | CC(C)C[C@@H]1NC(=O)[C@H](Cc2ccccc2)NC(=O)[C@H](Cc2ccccc2)N(C)C(=O)[C@H](Cc2ccccc2)NC(=O)C(C)(C)NC(=O)[C@H](CC(C)C)N(C)C(=O)[C@@H]2CCCN2C1=O [Scytalidamide A, reference compound] (cyclo(F[NMeF]FLP[NMeL][Aib])) | 2.75 | 0.11 | exception | significant (p<0.05) decrease | 0.63 | 0.15 | 1.01 | 0.07 |  | 
5 | CC(C)C[C@@H]1NC(=O)[C@H](C(C)C)NC(=O)[C@H](CC(C)C)NC(=O)[C@H](CC(C)C)N(C)C(=O)[C@H](Cc2ccc(Br)cc2)NC1=O [Compound 1c] (cyclo([Phe(4-Br)][NMeL]LVL)) | 0.56 |  |  |  | 0.75 |  | 1.10 |  | induced | 
